From paper PMC5355811 (Nature Communications, 2017)
Values joined by “and” are separate entries in the source; they are usually repeats but may differ in a detail not shown here. Equal entries are not always repeated. Where two headings read alike, the source gives them in different places.

Columns and labels:
Type in all cases: cell-based
[1] = system: Ba/F3 cells of EGFR-del19; experiment: Drug sensitivity screening at 100 nM, Ba/F3 EGFR-del19; conditions: for Relative cell viability (% of DMSO control) in del19 Ba/F3 cells: 100 nM; for viability at 0.1 µM: Mus musculus, BaF3, 72 h, read-out: Relative cell viability (ratio to DMSO control), del19
Protocol: (§1) After the incubation, cell viability was measured using CellTiter-Glo assay. The relative cell viability was calculated as a ratio of each value to that of the DMSO control.

[2] = system: Ba/F3 cells of EGFR-T790M/del19; experiment: Drug sensitivity screening at 100 nM, Ba/F3 EGFR-T790M/del19; conditions: for Relative cell viability (% of DMSO control): 100 nM; for viability at 0.1 µM: Mus musculus, BaF3, 72 h, read-out: Relative cell viability (ratio to DMSO control), del19/T790M
Protocol: as §1

[3] = system: Ba/F3 cells of EGFR-C797S/T790M/del19; experiment: Drug sensitivity screening at 100 nM, Ba/F3 EGFR-C797S/T790M/del19; conditions: Mus musculus, BaF3, 72 h, 100 nM inhibitor, 72 h, DMSO = 100; mean of three independent experiments (Fig. 1a data)
Protocol: as §1

[4] = 100 nM inhibitor, 72 h, DMSO = 100, mean of three independent experiments (Fig. 1a data)

Structure (SMILES): C=CCNC1=C2C[C@@H](C)C[C@H](OC)[C@H](O)[C@@H](C)/C=C(\C)[C@H](OC(N)=O)[C@@H](OC)/C=C\C=C(/C)C(=O)NC(=CC1=O)C2=O [17-AAG]
- Relative cell viability (ratio to DMSO control), del19 [1, 4]: 54.15 and 54.1494
- Relative cell viability (% of DMSO control) in del19 Ba/F3 cells ([1]; 72 h, DMSO = 100, experiment 1): 47.4299
- Relative cell viability (% of DMSO control) in del19 Ba/F3 cells ([1]; 72 h, DMSO = 100, experiment 2): 59.7934
- Relative cell viability (% of DMSO control) in del19 Ba/F3 cells ([1]; 72 h, DMSO = 100, experiment 3): 55.225
- Relative cell viability (ratio to DMSO control), del19/T790M [2, 4]: 63.86
- Relative cell viability (% of DMSO control) ([2]; 72 h, DMSO = 100, experiment 1): 65.6049
- Relative cell viability (% of DMSO control) ([2]; 72 h, DMSO = 100, experiment 2): 64.9663
- Relative cell viability (% of DMSO control) ([2]; 72 h, DMSO = 100, experiment 3): 61.0089

Structure (SMILES): Nc1ncnc2c1c(-c1cccc(OCc3ccccc3)c1)cn2[C@H]1C[C@@H](CN2CCC2)C1 [AEW541]
- Relative cell viability (% of DMSO control) in del19 Ba/F3 cells ([1]; 72 h, DMSO = 100, experiment 1): 86.142
- Relative cell viability (% of DMSO control) in del19 Ba/F3 cells ([1]; 72 h, DMSO = 100, experiment 2): 111.013
- Relative cell viability (% of DMSO control) in del19 Ba/F3 cells ([1]; 72 h, DMSO = 100, experiment 3): 118.474
- viability at 0.1 µM [1, 4]: 105%
- viability at 0.1 µM [2, 4]: 102%
- viability at 0.1 µM [3]: 132%

Structure (SMILES): Cn1cnc2c(F)c(Nc3ccc(Br)cc3Cl)c(C(=O)NOCCO)cc21 [AZD6244]
- Relative cell viability (% of DMSO control) in del19 Ba/F3 cells ([1]; 72 h, DMSO = 100, experiment 1): 44.8792
- Relative cell viability (% of DMSO control) in del19 Ba/F3 cells ([1]; 72 h, DMSO = 100, experiment 2): 57.317
- Relative cell viability (% of DMSO control) in del19 Ba/F3 cells ([1]; 72 h, DMSO = 100, experiment 3): 50.3776
- viability at 0.1 µM [1, 4]: 50.9%
- Relative cell viability (% of DMSO control) ([2]; 72 h, DMSO = 100, experiment 1): 105.003
- Relative cell viability (% of DMSO control) ([2]; 72 h, DMSO = 100, experiment 2): 111.809
- Relative cell viability (% of DMSO control) ([2]; 72 h, DMSO = 100, experiment 3): 110.93
- viability at 0.1 µM [2, 4]: 109%
- viability at 0.1 µM [3]: 134%

Structure (SMILES): CCc1cc2c(cc1N1CCC(N3CCOCC3)CC1)C(C)(C)c1[nH]c3cc(C#N)ccc3c1C2=O [Alectinib, alectinib]
- Relative cell viability (% of DMSO control) in del19 Ba/F3 cells ([1]; 72 h, DMSO = 100, experiment 1): 98.9355
- Relative cell viability (% of DMSO control) in del19 Ba/F3 cells ([1]; 72 h, DMSO = 100, experiment 2): 105.786
- Relative cell viability (% of DMSO control) in del19 Ba/F3 cells ([1]; 72 h, DMSO = 100, experiment 3): 113.209
- viability at 0.1 µM [1, 4]: 106%
- Relative cell viability (% of DMSO control) ([2]; 72 h, DMSO = 100, experiment 1): 98.2015
- Relative cell viability (% of DMSO control) ([2]; 72 h, DMSO = 100, experiment 2): 127.038
- Relative cell viability (% of DMSO control) ([2]; 72 h, DMSO = 100, experiment 3): 121.189
- viability at 0.1 µM [2, 4]: 115%
- viability at 0.1 µM [3]: 146%

Structure (SMILES): COC(=O)c1ccc2c(c1)NC(=O)/C2=C(\Nc1ccc(N(C)C(=O)CN2CCN(C)CC2)cc1)c1ccccc1 [BIBF1120]
- Relative cell viability (% of DMSO control) in del19 Ba/F3 cells ([1]; 72 h, DMSO = 100, experiment 1): 91.4241
- Relative cell viability (% of DMSO control) in del19 Ba/F3 cells ([1]; 72 h, DMSO = 100, experiment 2): 97.5116
- Relative cell viability (% of DMSO control) in del19 Ba/F3 cells ([1]; 72 h, DMSO = 100, experiment 3): 102.157
- viability at 0.1 µM [1, 4]: 97%
- viability at 0.1 µM [2, 4]: 91.1%
- viability at 0.1 µM [3]: 108%

Structure (SMILES): C[C@]12O[C@H](C[C@]1(O)CO)n1c3ccccc3c3c4c(c5c6ccccc6n2c5c31)CNC4=O [CEP701]
- viability at 0.1 µM [1]: 2.57%
- viability at 0.1 µM [2]: 7.99%

Structure (SMILES): Cc1nc2ccc(-n3ncc(C(=O)c4cc5ccccc5[nH]4)c3N)cc2[nH]1 [CH5183284]
- Relative cell viability (ratio to DMSO control), del19 [1, 4]: 111.23 and 111.228
- Relative cell viability (% of DMSO control) in del19 Ba/F3 cells ([1]; 72 h, DMSO = 100, experiment 1): 100.01
- Relative cell viability (% of DMSO control) in del19 Ba/F3 cells ([1]; 72 h, DMSO = 100, experiment 2): 123.157
- Relative cell viability (% of DMSO control) in del19 Ba/F3 cells ([1]; 72 h, DMSO = 100, experiment 3): 110.518
- Relative cell viability (ratio to DMSO control), del19/T790M [2, 4]: 100.76 and 100.762
- Relative cell viability (% of DMSO control) ([2]; 72 h, DMSO = 100, experiment 1): 87.4669
- Relative cell viability (% of DMSO control) ([2]; 72 h, DMSO = 100, experiment 2): 110.946
- Relative cell viability (% of DMSO control) ([2]; 72 h, DMSO = 100, experiment 3): 103.872

Structure (SMILES): COc1cc2nccc(Oc3ccc(NC(=O)NC4CC4)c(Cl)c3)c2cc1C(N)=O [E7080]
- Relative cell viability (ratio to DMSO control), del19 [1, 4]: 104.13 and 104.131
- Relative cell viability (% of DMSO control) in del19 Ba/F3 cells ([1]; 72 h, DMSO = 100, experiment 1): 87.8792
- Relative cell viability (% of DMSO control) in del19 Ba/F3 cells ([1]; 72 h, DMSO = 100, experiment 2): 107.525
- Relative cell viability (% of DMSO control) in del19 Ba/F3 cells ([1]; 72 h, DMSO = 100, experiment 3): 116.989
- Relative cell viability (ratio to DMSO control), del19/T790M [2, 4]: 118.49 and 118.491
- Relative cell viability (% of DMSO control) ([2]; 72 h, DMSO = 100, experiment 1): 107.332
- Relative cell viability (% of DMSO control) ([2]; 72 h, DMSO = 100, experiment 2): 130.309
- Relative cell viability (% of DMSO control) ([2]; 72 h, DMSO = 100, experiment 3): 117.831

Structure (SMILES): CO[C@H]1C[C@@H]2CC[C@@H](C)[C@@](O)(O2)C(=O)C(=O)N2CCCC[C@H]2C(=O)O[C@H]([C@H](C)C[C@@H]2CC[C@@H](OCCO)[C@H](OC)C2)CC(=O)[C@H](C)/C=C(\C)[C@@H](O)[C@@H](OC)C(=O)[C@H](C)C[C@H](C)/C=C/C=C/C=C/1C [Everolimus, everolimus]
- Relative cell viability (% of DMSO control) in del19 Ba/F3 cells ([1]; 72 h, DMSO = 100, experiment 1): 25.026
- Relative cell viability (% of DMSO control) in del19 Ba/F3 cells ([1]; 72 h, DMSO = 100, experiment 2): 29.0998
- Relative cell viability (% of DMSO control) in del19 Ba/F3 cells ([1]; 72 h, DMSO = 100, experiment 3): 35.5918
- viability at 0.1 µM [1, 4]: 29.9%
- Relative cell viability (% of DMSO control) ([2]; 72 h, DMSO = 100, experiment 1): 31.3636
- Relative cell viability (% of DMSO control) ([2]; 72 h, DMSO = 100, experiment 2): 39.0956
- Relative cell viability (% of DMSO control) ([2]; 72 h, DMSO = 100, experiment 3): 30.3952
- viability at 0.1 µM [2, 4]: 33.6%
- viability at 0.1 µM [3]: 28%

Structure (SMILES): COc1cc2c(Oc3ccc(NC(=O)C4(C(=O)Nc5ccc(F)cc5)CC4)cc3F)ccnc2cc1OCCCN1CCOCC1 [Foretinib, foretinib]
- Relative cell viability (% of DMSO control) in del19 Ba/F3 cells ([1]; 72 h, DMSO = 100, experiment 1): 89.6065
- Relative cell viability (% of DMSO control) in del19 Ba/F3 cells ([1]; 72 h, DMSO = 100, experiment 2): 99.5833
- Relative cell viability (% of DMSO control) in del19 Ba/F3 cells ([1]; 72 h, DMSO = 100, experiment 3): 99.8956
- viability at 0.1 µM [1, 4]: 96.4%
- Relative cell viability (% of DMSO control) ([2]; 72 h, DMSO = 100, experiment 1): 105.61
- Relative cell viability (% of DMSO control) ([2]; 72 h, DMSO = 100, experiment 2): 122.653
- Relative cell viability (% of DMSO control) ([2]; 72 h, DMSO = 100, experiment 3): 104.986
- viability at 0.1 µM [2, 4]: 111%
- viability at 0.1 µM [3]: 135%
